Laboratory results as given in patent US6376497B1, “Antifungal azole derivatives having a fluorinated vinyl group and process for preparing same” (Korea Research Institute of Chemical Technology, priority 1999, dated 2002).

Tests used:
Experiment in all cases: In vitro antifungal activity, microbroth dilution MIC
Format in all cases: cell-based
[1] = system: Cryptococcus neoformans IFM. 40092; settings: Cry. neoformans IFM. 40092, RPMI-1640, 35° C., 4 to 48 hours
Description: (§1) In vitro antifungal activities of the inventive antifungal compounds were evaluated using the test strains shown in Table VIII by the following microbroth dilution method which is a modified version of the procedure recommended by National Committee for Clinical Laboratory Standards(see National Committee for Clinical Laboratory Standards, 1992, Reference methods for broth dilution antifungal susceptibility testing of yeasts, Proposed standard M27-P, National Committee for clinical laboratory standards, Villanova, Pa; and National Committee for Clinical Laboratory Standards, 1995, Reference methods for broth dilution antifungal susceptibility testing of yeasts. Tentative standard M27-T, National Committee for clinical laboratory standards, Villanova, Pa).
(§2) Sabourad Dextrose Agar(Difco) was used as a culture medium, and RPMI-1640 broth(Sigma. Co. w/L-glutamine, wo/NaHCO3)(0.165 M MOPS, pH 7.0), as a dilution medium.
(§3) Each of the test strains were subcultured in Sabourad Dextrose Agar medium twice and a stain sample was taken from prominent colonies and suspended in sterile physiological saline solution in a cap tube. The turbidity of the suspension was adjusted to that of the Mcfarland 0.5 standard sample(approximately 10^6 CFU/ml). Then the suspension was diluted 500-fold with sterile RPMI-1640 liquid medium to 2×10^3 CFU/ml.
(§4) Each of the test compounds(the compounds obtained in Examples 1 to 150 and comparative compounds, i.e., fluconazole(FCZ) and itraconazole (ICZ)), was dissolved in DMSO to give a stock solution having a concentration of 4000 μg/ml and the stock solution was successively diluted to obtain test solutions having test compound concentrations of 200, 100, 50, 25, 12.5, 6.25, 3.13, 1.56, 0.78, 0.39, 0.20 and 0.10 μg/ml, respectively.
(§5) 0.1 ml portion of the test solutions were added to the wells of a sterile 96 well plate. Then, 0.1 ml portion of each of the test strain solutions were added successively to the wells and the plate was incubated at 35° C. for 4 to 48 hours.
(§6) Minimal inhibitory concentration(MIC) of each compound was defined as the concentration of the test compound where no growth of the strain could be observed.

[2] = system: Candida albicans A. 10231; settings: C. albicans A. 10231, RPMI-1640, 35° C., 4 to 48 hours
Description: as §1, §2, §3, §4, §5, §6

[3] = system: Trichophyton mentagrophytes A. 9129; settings: T. mentagrophytes A. 9129, RPMI-1640, 35° C., 4 to 48 hours
Description: as §1, §2, §3, §4, §5, §6

[4] = system: Torulopsis glabrata B. 16205; settings: T. glabrata B. 16205, RPMI-1640, 35° C., 4 to 48 hours
Description: as §1, §2, §3, §4, §5, §6

[5] = system: Candida pseudotropicalis K. 11658; settings: C. pseudotropicalis K. 11658, RPMI-1640, 35° C., 4 to 48 hours
Description: as §1, §2, §3, §4, §5, §6

[6] = system: Aspergillus furnigatus B. 19119; settings: A furnigatus B. 19119, RPMI-1640, 35° C., 4 to 48 hours
Description: as §1, §2, §3, §4, §5, §6

[7] = system: Candida albicans IFO. 1385; settings: C. albicans IFO. 1385, RPMI-1640, 35° C., 4 to 48 hours
Description: as §1, §2, §3, §4, §5, §6

[8] = system: Candida parapsitosis A. 7330; settings: C. parapsitosis A. 7330, RPMI-1640, 35° C., 4 to 48 hours
Description: as §1, §2, §3, §4, §5, §6

[9] = system: Aspergillus niger A. 16404; settings: A. niger A. 16404, RPMI-1640, 35° C., 4 to 48 hours
Description: as §1, §2, §3, §4, §5, §6

Candida albicans C1-2 = settings: C. albicans C1-2, RPMI-1640, 35° C., 4 to 48 hours
Description: as §1, §2, §3, §4, §5, §6

[10] = system: Cryptococcus neoformans A. 34144; settings: Cry. neoformans A. 34144, RPMI-1640, 35° C., 4 to 48 hours
Description: as §1, §2, §3, §4, §5, §6

Candida krusei K. 11655 = settings: C. krusei K. 11655, RPMI-1640, 35° C., 4 to 48 hours
Description: as §1, §2, §3, §4, §5, §6

[11] = system: Candida tropicalis A. 13803; settings: C. tropicalis A. 13803, RPMI-1640, 35° C., 4 to 48 hours
Description: as §1, §2, §3, §4, §5, §6

[12] = system: Cryptococcus neoformans B. 42419; settings: Cry. neoformans B. 42419, RPMI-1640, 35° C., 4 to 48 hours
Description: as §1, §2, §3, §4, §5, §6

[13] = system: Trichophyton mentagrophytes B. 32663; settings: T. mentagrophytes B. 32663, RPMI-1640, 35° C., 4 to 48 hours
Description: as §1, §2, §3, §4, §5, §6

Row | SMILES | Minimal inhibitory concentration (MIC) [1] | Minimal inhibitory concentration (MIC) [2] | Minimal inhibitory concentration (MIC) [3] | Minimal inhibitory concentration (MIC) [4] | Minimal inhibitory concentration (MIC) [5] | Minimal inhibitory concentration (MIC) [6] | Minimal inhibitory concentration (MIC) [7] | Minimal inhibitory concentration (MIC) [8] | Minimal inhibitory concentration (MIC) [9] | Minimal inhibitory concentration (MIC) (Candida albicans C1-2) | Minimal inhibitory concentration (MIC) [10] | Minimal inhibitory concentration (MIC) (Candida krusei K. 11655) | Minimal inhibitory concentration (MIC) [11] | Minimal inhibitory concentration (MIC) [12] | Minimal inhibitory concentration (MIC) [13]
1 | Cc1ccc(C(=C(F)OCC2COC(Cn3ccnc3)(c3ccc(F)cc3F)O2)C(F)(F)F)cc1 (mixture of isomers) [Ex. 54] | ≦0.10 μg/ml | 12.5 µg/mL | 3.13 µg/mL | 6.25 µg/mL | 100 µg/mL | 3.13 µg/mL | 0.78 µg/mL | >100 µg/mL | 25.0 µg/mL | 25.0 µg/mL | 1.56 µg/mL | >100 µg/mL | 100 µg/mL | 0.78 µg/mL | 1.56 µg/mL
2 | CCc1ccc(C(=C(F)OCC2COC(Cn3ccnc3)(c3ccc(F)cc3F)O2)C(F)(F)F)cc1 (mixture of isomers) [Ex. 55] | ≦0.10 μg/ml | 12.5 µg/mL | 6.25 µg/mL | 6.25 µg/mL | 50.0 µg/mL | 100 µg/mL | 0.78 µg/mL | >100 µg/mL | >100 µg/mL | 12.5 µg/mL | 0.78 µg/mL | >100 µg/mL | 25.0 µg/mL | 0.78 µg/mL | 3.13 µg/mL
3 | Cc1ccc(C(=C(F)OCC2COC(Cn3ccnc3)(c3ccc(F)cc3F)O2)C(F)(F)F)cc1C (mixture of isomers) [Ex. 56] | 0.20 µg/mL | 12.5 µg/mL | 6.25 µg/mL | 6.25 µg/mL | >100 µg/mL | 50.0 µg/mL | 0.78 µg/mL | >100 µg/mL | >100 µg/mL | 12.5 µg/mL | 1.56 µg/mL | >100 µg/mL | 100 µg/mL | 0.78 µg/mL | 3.13 µg/mL
4 | Cc1cc(C)cc(C(=C(F)OCC2COC(Cn3ccnc3)(c3ccc(F)cc3F)O2)C(F)(F)F)c1 (mixture of isomers) [Ex. 57] | 0.20 µg/mL | 12.5 µg/mL | 6.25 µg/mL | 6.25 µg/mL | >100 µg/mL | 50.0 µg/mL | 0.78 µg/mL | >100 µg/mL | >100 µg/mL | 12.5 µg/mL | 1.56 µg/mL | >100 µg/mL | 100 µg/mL | 0.78 µg/mL | 3.13 µg/mL
5 | FC(OCC1COC(Cn2ccnc2)(c2ccc(F)cc2F)O1)=C(c1cccc(C(F)(F)F)c1)C(F)(F)F (mixture of isomers) [Ex. 58] | 0.39 µg/mL | 25.0 µg/mL | 12.5 µg/mL | 6.25 µg/mL | 50.0 µg/mL | 25.0 µg/mL | 0.78 µg/mL | >100 µg/mL | >100 µg/mL | 25.0 µg/mL | 1.56 µg/mL | 100 µg/mL | >100 µg/mL | 1.56 µg/mL | 6.25 µg/mL
6 | FC(OCC1COC(Cn2ccnc2)(c2ccc(F)cc2F)O1)=C(c1ccc(C(F)(F)F)cc1)C(F)(F)F (mixture of isomers) [Ex. 59] | 0.78 µg/mL | 12.5 µg/mL | 25.0 µg/mL | 3.13 µg/mL | 25.0 µg/mL | 50.0 µg/mL | 0.78 µg/mL | >100 µg/mL | >100 µg/mL | 25.0 µg/mL | 3.13 µg/mL | 50.0 µg/mL | >100 µg/mL | 3.13 µg/mL | 12.5 µg/mL
